Reference: US20240043403A1, “HETEROARYL CARBOXAMIDE COMPOUND” (Astellas Pharma Inc., priority 2020, published 2024)
Structures can show the parent of a compound that is named as a salt.

How the values were obtained:
B16-F1 cells = assay: Evaluation of antitumor effect in syngeneic mouse model bearing mouse melanoma cell line B16-F1; assay type: in vivo; settings: po, 240 h, C57BL/6J mice bearing B16-F1, read-out: Antitumor effect (relative tumor growth inhibition); for inhibition in vivo at 0.03 mg/kg: 0.03 mg/kg orally once daily for 10 days; for inhibition in vivo at 0.3 mg/kg: 0.3 mg/kg orally once daily for 10 days
Experimental: Test Example 3: Evaluation of Antitumor Effect in Syngeneic Mouse Model Bearing Mouse Melanoma Cell Line B16-F1
A cell suspension liquid prepared by suspending B16-F1 cells (ATCC, CRL-6323) in PBS at 2.0×10^6 cells/mL was subcutaneously inoculated into 5-week-old female mice (C57BL/6J from Charles River Laboratories Japan, Inc.) in a volume of 50 μL. 5 days after the inoculation, the mice were grouped in such a manner that there was substantially no difference in tumor volume between groups, and administration of the test compound was started. The test was conducted with a solvent group and a test compound administration group each having 10 mice. 0.5% methylcellulose (Shin-Etsu Chemical Co., Ltd.) was orally administered to the solvent group, and 0.5% methylcellulose mixed with the test compound was orally administered to the test compound administration group. The administration was performed for 10 days once daily, and the tumor diameter and the body weight were measured twice a week. The following expression was used for calculation of the tumor volume.
[tumor volume (mm^3)]=[tumor major diameter […]]×[tumor minor diameter (mm)]^2×0.5
The relative tumor growth inhibition (%) of the test compound was calculated, where the tumor volume of the solvent group immediately before the start of administration was set to 100% inhibition, and the tumor volume of the solvent group on the day after the last administration was set to 0% inhibition. […] In the table, Ex represents the number of each Example described below.

[1] = system: IL-2 production in Jurkat E6.1 cells; assay: Evaluation of IL-2 production in human T-cell leukemia cell line Jurkat E6.1 (TCR stimulation anti-CD3/anti-CD28); assay type: cell-based; settings: Jurkat E6.1, 24 h, concentration at which IL-2 increased to 10 times the solvent control, Jurkat E6.1, anti-CD3/anti-CD28, 24 hours
Experimental: Test Example 2. Evaluation of Il-2 Production in Human T-Cell Leukemia Cell Line Jurkat E6.1
The effect of the test compound on the IL-2 production by T-cell receptor (TCR) stimulation (anti-CD3/anti-CD28) in Jurkat E6.1 cells (ECACC, 88042803) was evaluated.
A 5 μg/mL anti-CD3 antibody (eBioscience, Inc., OKT3 clone) diluted with phosphate buffer saline (PBS) was added to a 96-well plate (Iwaki & Co., Ltd.) at 50 μL/well, and left standing at 4° C. for 12 hours or more to provide an anti-CD3 antibody-coated plate in advance. When the plate was used for experiments, the plate was washed with 200 μL of PBS once, an anti-CD28 antibody (eBioscience, Inc., 28.2 clone) diluted to a concentration of 10 μg/mL with a culture medium (RPMI1640 (Sigma-Aldlich Co. LLC.) containing 10% fetal bovine serum (Hyclone Laboratories, Inc.)) was then added at 10 μL/well, and the plate was used for assay as a culture plate for TCR stimulation.
Subsequently, the test compound was mixed with Jurkat E6.1 cells in such a manner that an intended final concentration was obtained, and the mixture was plated at 90 μL/well so that the number of cells per well was 1×10^5(that is, finally the culture was performed at 1×10^5 cells/100 μL/well). For culture cell conditions, the culture was performed at 37° C. in the presence of 5% CO2 using RPMI1640 medium containing 10% fatal bovine serum.
After 24 hours, the culture supernatant was collected, and IL-2 was quantitatively determined using AlphaLISA human IL2 Immunoassay Research Kit (PerkinElmer, Inc.). The IL-2 measurement was performed under Alpha Screen standard setting conditions (the fluorescence intensity at 570 nm was measured with an excitation wavelength of 680 nm) using EnVision 2104-0010 and EnVision 2104-0020 (PerkinElmer, Inc.). The IL-2 quantitative value of the solvent treatment control was set to 1, and the test compound concentration at which the IL-2 quantitative value of the test compound treatment sample increased to 10 times the IL-2 quantitative value of the control (EC10fold) was calculated by inverse estimation with the aid of Sigmoid-Emax model non-linear regression analysis. […] In the table, Ex represents the number of each Example described below.

human recombinant DGK ξ = human recombinant DGK ξ (Homo sapiens (Human), UniProt Q13574); assay: Evaluation of DGK ξ inhibitory effect (ADP-Glo Kinase Assay); assay type: biochemical; settings: ADP-Glo luminescence
Experimental: Test Example 1. Evaluation of DGK ξ Inhibitory Effect
The inhibitory effect of a test compound on human recombinant DGK ξ (Cama Biosciences, Inc., 12-410-20N) was examined by the following method in which detection is performed with ADP-Glo™ Kinase Assay (Promega Corporation).
To a 384-well plate (Greiner Bio-One Co., Ltd.), 3 μL of a DGK ξ enzyme dissolved in an assay buffer (40 mM Tris-HCl pH 7.5, 10 mM MgCl2, 1 mM dithiothreitol (DTT) and 0.1 mg/mL bovine serum albumin (BSA)) (90 ng/mL) was added, and 3 μL of the test compound diluted with the same assay buffer was added so that an intended final concentration was obtained. The mixture was left standing at room temperature for 15 minutes, 3 μL of a substrate (150 μM 1-oleoyl-2-acetyl-sn-glycerol (Sigma-Aldrich Co. LLC), 480 μM phosphatidylserine (Avanti, Inc.) and 150 μM UltraPure-ATP (attached to ADP-Glo)) was then added, and the mixture was left standing at room temperature for 30 minutes to react. Thereafter, 3 μL of an ADP-Glo Reagent was added, and the mixture was left standing at room temperature for 40 minutes to stop the enzyme reaction. Further, 6 μL of a Kinase-Detection Reagent was added, the mixture was left standing at room temperature for 30 minutes, and the luminescence was then measured using ARVO X3 (PerkinElmer, Inc.). The half maximal inhibitory concentration (IC50) was calculated by Sigmoid-Emax model non-linear regression analysis, where the signal value in solvent treatment was set to 0% inhibition and the signal value without addition of the DGK ξ enzyme was set to 100% inhibition. […] In the table. Ex represents the number of each Example described below.

Sequence of human recombinant DGK ξ (Q13574 whole entry): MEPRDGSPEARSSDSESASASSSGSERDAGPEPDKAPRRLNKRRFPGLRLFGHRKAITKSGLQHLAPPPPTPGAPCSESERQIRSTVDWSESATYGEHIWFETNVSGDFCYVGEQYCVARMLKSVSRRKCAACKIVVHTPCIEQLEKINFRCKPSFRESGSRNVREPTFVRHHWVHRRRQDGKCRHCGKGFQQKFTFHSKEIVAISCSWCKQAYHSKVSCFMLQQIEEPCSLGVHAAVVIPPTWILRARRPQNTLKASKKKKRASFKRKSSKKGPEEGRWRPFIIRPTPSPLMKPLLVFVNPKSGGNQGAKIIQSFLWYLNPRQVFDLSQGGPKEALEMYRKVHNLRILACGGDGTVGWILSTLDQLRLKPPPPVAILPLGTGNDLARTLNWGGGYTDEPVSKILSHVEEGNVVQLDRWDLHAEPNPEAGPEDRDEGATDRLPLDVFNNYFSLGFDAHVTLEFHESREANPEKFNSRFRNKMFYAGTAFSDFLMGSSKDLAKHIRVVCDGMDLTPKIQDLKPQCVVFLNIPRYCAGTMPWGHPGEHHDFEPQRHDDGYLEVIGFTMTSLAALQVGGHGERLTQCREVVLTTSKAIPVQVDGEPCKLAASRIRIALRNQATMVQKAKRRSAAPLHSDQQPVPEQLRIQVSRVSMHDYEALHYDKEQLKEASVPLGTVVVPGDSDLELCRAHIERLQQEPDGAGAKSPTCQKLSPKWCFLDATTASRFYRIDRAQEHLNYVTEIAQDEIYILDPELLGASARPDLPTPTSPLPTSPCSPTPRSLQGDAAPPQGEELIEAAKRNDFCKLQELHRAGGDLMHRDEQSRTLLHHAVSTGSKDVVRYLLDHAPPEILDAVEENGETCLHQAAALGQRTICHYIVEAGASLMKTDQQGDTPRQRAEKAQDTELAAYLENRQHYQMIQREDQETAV

Row | Structure (SMILES) | IC50 (human recombinant DGK ξ) | inhibition in vivo at 0.03 mg/kg (B16-F1 cells) | EC (10-fold increase) [1] | inhibition in vivo at 0.3 mg/kg (B16-F1 cells)
1 | NC[C@@H]1CCCN(c2c(NC(=O)c3ccn(CC(F)F)n3)ccc(Oc3ccccc3F)c2C(F)(F)F)C1 [Example 1, monohydrochloride] | – | 35% | 0.11 µM | –
2 | NC[C@]1(F)CCCN(c2c(NC(=O)c3ccn(-c4ccnnc4)n3)ccc(Oc3ccccc3F)c2C(F)(F)F)C1 [Example 45] | 12 nM | 30% | – | –
3 | CNC[C@@H]1CN(c2c(NC(=O)c3ccn(-c4ccnnc4)n3)ccc(Oc3ccccc3F)c2C(F)(F)F)CCN1C [Example 47] | 6.7 nM | – | – | 42%
4 | CNC[C@H]1CN(c2c(NC(=O)c3ccn(-c4ccnnc4)n3)ccc(Oc3ccccc3F)c2Cl)CCN1C [Example 86, N-[3-chloro-4-(2-fluorophenoxy)-2-{(3S)-4-methyl-3-[(methylamino)methyl]piperazin-1-yl}phenyl]-1-(pyridazin-4-yl)-1H-pyrazole-3-carboxamide] | 2.9 nM | – | – | 31%
5 | NC[C@]1(F)CCCN(c2c(NC(=O)c3ccn(-c4ccnnc4)n3)ccc(Oc3ccccc3F)c2C(F)(F)F)C1 [Example 126, N-{2-[(3R)-3-(aminomethyl)-3-fluoropiperidin-1-yl]-4-(2-fluorophenoxy)-3-(trifluoromethyl)phenyl}-1-(pyridazin-4-yl)-1H-pyrazole-3-carboxamide monobutanedioate] | 6.2 nM | – | – | –

The remaining molecules from weak to strong by IC50 (human recombinant DGK ξ), led by results:

Row | IC50 (human recombinant DGK ξ) | Structure (SMILES) | inhibition in vivo at 0.03 mg/kg (B16-F1 cells) | EC (10-fold increase) [1] | inhibition in vivo at 0.3 mg/kg (B16-F1 cells)
6 | 45 nM | N[C@@H]1CCN2CCN(c3c(NC(=O)c4coc(-c5ccnnc5)n4)ccc(Oc4ccccc4F)c3C(F)(F)F)C[C@@H]12 [Example 80] | – | 0.46 µM | 31%
7 | 20 nM | CN1CCN(c2c(NC(=O)c3ccn(CC(F)F)n3)ccc(Oc3ccccc3Cl)c2Cl)C[C@@H]1CN [Example 20] | – | 0.036 µM | 33%
8 | 18 nM | CN1CCN(c2c(NC(=O)c3ccn(CC(F)F)n3)ccc(Oc3ccccc3Cl)c2C(F)(F)F)C[C@@H]1CN [Example 13] | – | 0.34 µM | 36%
9 | 10 nM | CNC[C@H]1CN(c2c(NC(=O)c3ccn(-c4ccnnc4)n3)ccc(Oc3ccccc3F)c2C(F)(F)F)CCN1C [Example 29, N-[4-(2-fluorophenoxy)-2-{(3S)-4-methyl-3-[(methylamino)methyl]piperazin-1-yl}-3-(trifluoromethyl)phenyl]-1-(pyridazin-4-yl)-1H-pyrazole-3-carboxamide] | – | – | 41%
10 | 5.8 nM | CNC[C@H]1CN(c2c(NC(=O)c3ccn(-c4ccnnc4)n3)ccc(C3CCCC3)c2C(F)(F)F)CCN1C [Example 48] | – | – | 40%
